Key:
[1] = tested on: Human immunodeficiency virus 1; test: Antiviral activity against HIV1; assay type: functional, organism-based
[2] = tested on: HEK293; test: Cytotoxicity against HEK293T cells; assay type: functional; conditions: Homo sapiens
[3] = tested on: Human immunodeficiency virus 1; test: Antiviral activity against HIV1 E138K mutant; assay type: functional, organism-based
[4] = tested on: Human immunodeficiency virus 1; test: Antiviral activity against HIV1 F227L mutant; assay type: functional, organism-based
[5] = tested on: Human immunodeficiency virus 1; test: Antiviral activity against HIV1 I135V mutant; assay type: functional, organism-based
[6] = tested on: Human immunodeficiency virus 1; test: Antiviral activity against HIV1 K103N mutant; assay type: functional, organism-based
[7] = tested on: Human immunodeficiency virus 1; test: Antiviral activity against HIV1 L100I mutant; assay type: functional, organism-based
[8] = tested on: Human immunodeficiency virus 1; test: Antiviral activity against HIV1 V106A mutant; assay type: functional, organism-based
[9] = tested on: Human immunodeficiency virus 1; test: Antiviral activity against HIV1 Y181C mutant; assay type: functional, organism-based
[10] = tested on: Human immunodeficiency virus 1; test: Antiviral activity against HIV1 Y188L mutant; assay type: functional, organism-based
[11] = tested on: Human immunodeficiency virus 1; test: Antiviral activity against HIV1 V179E mutant; assay type: functional, organism-based
[12] = tested on: Human immunodeficiency virus 1; test: Antiviral activity against HIV1 Y181H mutant; assay type: functional, organism-based
[13] = tested on: Human immunodeficiency virus 1; test: Antiviral activity against HIV1 Y181S mutant; assay type: functional, organism-based

C=CCCCC12CC1(C(=O)OCC)C(=O)Nc1ccc(Cl)cc12 (centres undefined)
EC50 [1]: 1 nM | CC50 [2]: > 10000 nM | EC50 [3]: 57 nM | EC50 [4]: 9 nM | EC50 [5]: 33 nM | EC50 [6]: 1250 nM | EC50 [7]: 35 nM | EC50 [8]: 260 nM | EC50 [9]: > 10000 nM | EC50 [10]: > 10000 nM | EC50 [11]: 304 nM | EC50 [12]: 89 nM | EC50 [13]: 1680 nM

CCCCC12CC1(C(=O)Nc1ccc(C(=O)O)cc1)C(=O)Nc1ccc(Cl)cc12 (centres undefined)
EC50 [1]: > 10000 nM | CC50 [2]: > 10000 nM

CCCCCCC12CC1(C(=O)OCC)C(=O)Nc1ccc(Cl)cc12 (centres undefined)
EC50 [1]: 25 nM | CC50 [2]: > 10000 nM | EC50 [3]: 98 nM | EC50 [4]: 41 nM | EC50 [5]: 66 nM | EC50 [6]: 3080 nM | EC50 [7]: 53 nM | EC50 [8]: 878 nM | EC50 [9]: 2250 nM | EC50 [10]: > 10000 nM | EC50 [11]: 1600 nM | EC50 [12]: 61 nM | EC50 [13]: 929 nM

CCCCC12CC1(C(=O)Nc1ccncc1)C(=O)Nc1ccc(Cl)cc12 (centres undefined)
EC50 [1]: 8260 nM | CC50 [2]: > 10000 nM

CCCCC12CC1(CO)C(=O)Nc1ccc(Cl)cc12 (centres undefined)
EC50 [1]: 743 nM | CC50 [2]: > 10000 nM

CCCCC1(C)c2cc(Cl)ccc2NC(=O)C1C(=O)OCC (centres undefined)
EC50 [1]: 1400 nM | CC50 [2]: > 10000 nM

CCCCC12CC1(C(=O)N(C)CC)C(=O)Nc1ccc(Cl)cc12 (centres undefined)
EC50 [1]: > 10000 nM | CC50 [2]: > 10000 nM

CCOC(=O)C12CC1(C(C)C)c1cc(Cl)ccc1NC2=O (centres undefined)
EC50 [1]: > 10000 nM | CC50 [2]: > 10000 nM

CCCCCC12CC1(C(=O)OCC)C(=O)Nc1ccc(Cl)cc12 (centres undefined)
EC50 [1]: 1 nM | CC50 [2]: > 10000 nM | EC50 [3]: 18 nM | EC50 [4]: 5 nM | EC50 [5]: 17 nM | EC50 [6]: 669 nM | EC50 [7]: 12 nM | EC50 [8]: 238 nM | EC50 [9]: 926 nM | EC50 [10]: > 10000 nM | EC50 [11]: 234 nM | EC50 [12]: 16 nM | EC50 [13]: 369 nM

CCCCC(=O)C12CC1(CCCC)c1cc(Cl)ccc1NC2=O (centres undefined)
EC50 [1]: 6300 nM | CC50 [2]: > 10000 nM

CCCCC12CC1(C(=O)NCCC(=O)O)C(=O)Nc1ccc(Cl)cc12 (centres undefined)
EC50 [1]: > 10000 nM | CC50 [2]: > 10000 nM

CCCCC12CC1(C(=O)Nc1ccc(C(N)=O)cc1)C(=O)Nc1ccc(Cl)cc12 (centres undefined)
EC50 [1]: 4550 nM | CC50 [2]: > 10000 nM

CCCC12CC1(C(=O)OCC)C(=O)Nc1ccc(Cl)cc12 (centres undefined)
EC50 [1]: 45 nM | CC50 [2]: > 10000 nM | EC50 [3]: 132 nM | EC50 [4]: 26 nM | EC50 [5]: 97 nM | EC50 [6]: > 10000 nM | EC50 [7]: 41 nM | EC50 [8]: 1010 nM | EC50 [9]: > 10000 nM | EC50 [10]: > 10000 nM | EC50 [11]: 1890 nM | EC50 [12]: 210 nM | EC50 [13]: 1210 nM

CCCCC12CC1(C(=O)Nc1cccc(C#N)c1)C(=O)Nc1ccc(Cl)cc12 (centres undefined)
EC50 [1]: 160 nM | CC50 [2]: > 10000 nM

CCOC(=O)C12CC1(CCc1ccccc1)c1cc(Cl)ccc1NC2=O (centres undefined)
EC50 [1]: 221 nM | CC50 [2]: > 10000 nM

CCOC(=O)C12CC1(C1CCCC1)c1cc(Cl)ccc1NC2=O (centres undefined)
EC50 [1]: 3250 nM | CC50 [2]: > 10000 nM

CCCCC12CC1(C(=O)NCC)C(=O)Nc1ccc(Cl)cc12 (centres undefined)
EC50 [1]: 747 nM | CC50 [2]: > 10000 nM

CCOC(=O)C12CC1(Cc1ccccc1)c1cc(Cl)ccc1NC2=O (centres undefined)
EC50 [1]: > 10000 nM | CC50 [2]: > 10000 nM

C=CCNC(=O)C12CC1(CCCC)c1cc(Cl)ccc1NC2=O (centres undefined)
EC50 [1]: 489 nM | CC50 [2]: > 10000 nM

CCOC(=O)C12CC1(CC)c1cc(Cl)ccc1NC2=O (centres undefined)
EC50 [1]: 5040 nM | CC50 [2]: > 10000 nM

CCCCC12CC1(C(=O)CCC)C(=O)Nc1ccc(Cl)cc12 (centres undefined)
EC50 [1]: 265 nM | CC50 [2]: > 10000 nM

CCCCC12CC1(C(=O)OC)C(=O)Nc1ccc(Cl)cc12 (centres undefined)
EC50 [1]: 1 nM | CC50 [2]: > 10000 nM | EC50 [3]: 8 nM | EC50 [4]: > 10000 nM | EC50 [5]: 12 nM | EC50 [6]: 682 nM | EC50 [7]: 4 nM | EC50 [8]: 57 nM | EC50 [9]: 727 nM | EC50 [10]: 7340 nM | EC50 [11]: 244 nM | EC50 [12]: 8 nM | EC50 [13]: 581 nM

CCCCC12CC1(C#N)C(=O)Nc1ccc(Cl)cc12 (centres undefined)
EC50 [1]: 197 nM | CC50 [2]: > 10000 nM

CCCCC12CC1(C(=O)Oc1ccc(C#N)cc1)C(=O)Nc1ccc(Cl)cc12 (centres undefined)
EC50 [1]: 1100 nM | CC50 [2]: > 10000 nM

CCOC(=O)C12CC1(C)c1cc(Cl)ccc1NC2=O (centres undefined)
EC50 [1]: > 10000 nM | CC50 [2]: > 10000 nM

CCCCC12CC1(C(=O)OCCC#N)C(=O)Nc1ccc(Cl)cc12 (centres undefined)
EC50 [1]: 113 nM | CC50 [2]: > 10000 nM

CCCCC12CC1(C(=O)Nc1ccccn1)C(=O)Nc1ccc(Cl)cc12 (centres undefined)
EC50 [1]: 2700 nM | CC50 [2]: > 10000 nM

CCCCC12CC1(C(=O)CC1CC1)C(=O)Nc1ccc(Cl)cc12 (centres undefined)
EC50 [1]: 5690 nM | CC50 [2]: > 10000 nM

CCCCC12CC1(C(=O)Nc1ccccc1C(N)=O)C(=O)Nc1ccc(Cl)cc12 (centres undefined)
EC50 [1]: 1330 nM | CC50 [2]: > 10000 nM

CCCCC12CC1(C(=O)NC(C)C)C(=O)Nc1ccc(Cl)cc12 (centres undefined)
EC50 [1]: 2780 nM | CC50 [2]: > 10000 nM

CCCCC12CC1(C(=O)Oc1ccccc1)C(=O)Nc1ccc(Cl)cc12 (centres undefined)
EC50 [1]: > 10000 nM | CC50 [2]: > 10000 nM

CCOC(=O)C12CC1(CC(C)C)c1cc(Cl)ccc1NC2=O (centres undefined)
EC50 [1]: 57 nM | CC50 [2]: > 10000 nM | EC50 [3]: 91 nM | EC50 [4]: 22 nM | EC50 [5]: 85 nM | EC50 [6]: > 10000 nM | EC50 [7]: 63 nM | EC50 [8]: 2940 nM | EC50 [9]: > 10000 nM | EC50 [10]: > 10000 nM | EC50 [11]: 3950 nM | EC50 [12]: 210 nM | EC50 [13]: 901 nM

CCCCC12CC1(C(=O)OCC)C(=O)Nc1ccc(Cl)cc12 (centres undefined)
EC50 [1]: 3 nM | CC50 [2]: > 10000 nM | EC50 [3]: 47 nM | EC50 [4]: 7 nM | EC50 [5]: 28 nM | EC50 [6]: 884 nM | EC50 [7]: 14 nM | EC50 [8]: 279 nM | EC50 [9]: 1650 nM | EC50 [10]: > 10000 nM | EC50 [11]: 914 nM | EC50 [12]: 9 nM | EC50 [13]: 684 nM

CCOC(=O)C12CC1(c1ccc(-c3ccccc3)cc1)c1cc(Cl)ccc1NC2=O (centres undefined)
EC50 [1]: > 10000 nM | CC50 [2]: > 10000 nM

CCOC(=O)C12CC1(C1CC1)c1cc(Cl)ccc1NC2=O (centres undefined)
EC50 [1]: > 10000 nM | CC50 [2]: > 10000 nM

CCCCC12CC1(C(=O)NCc1ccccc1)C(=O)Nc1ccc(Cl)cc12 (centres undefined)
EC50 [1]: 2820 nM | CC50 [2]: 8820 nM

C=CCOCC12CC1(CCCC)c1cc(Cl)ccc1NC2=O (centres undefined)
EC50 [1]: 240 nM | CC50 [2]: > 10000 nM

CCOC(=O)C12CC1(C1CCCCC1)c1cc(Cl)ccc1NC2=O (centres undefined)
EC50 [1]: > 10000 nM | CC50 [2]: > 10000 nM

CCCCC12CCC1(C(=O)OCC)C(=O)Nc1ccc(Cl)cc12 (centres undefined)
EC50 [1]: 102 nM | CC50 [2]: > 10000 nM

CCCCc1c(C(=O)OCC)c(O)nc2ccc(Cl)cc12
EC50 [1]: 166 nM | CC50 [2]: > 10000 nM

CCCCC12CC1(C(=O)N1CCCC1)C(=O)Nc1ccc(Cl)cc12 (centres undefined)
EC50 [1]: > 10000 nM | CC50 [2]: > 10000 nM

CCCCC12CC1(C(=O)N1CCC1)C(=O)Nc1ccc(Cl)cc12 (centres undefined)
EC50 [1]: > 10000 nM | CC50 [2]: > 10000 nM

CCCCC12CC1(C(=O)OCC=C(C)C)C(=O)Nc1ccc(Cl)cc12 (centres undefined)
EC50 [1]: 2360 nM | CC50 [2]: > 10000 nM

CCCCC12CC1(C(=O)Nc1ccccc1C#N)C(=O)Nc1ccc(Cl)cc12 (centres undefined)
EC50 [1]: 1710 nM | CC50 [2]: 6090 nM

O=C1Nc2ccc(Cl)cc2C(C#CC2CC2)(C(F)(F)F)O1 (single isomer, unassigned) [EFAVIRENZ]
CC50 [2]: > 10000 nM | EC50 [3]: 2 nM | EC50 [4]: 1 nM | EC50 [5]: 1 nM | EC50 [8]: 4 nM | EC50 [10]: 280 nM | EC50 [11]: 6 nM | EC50 [12]: 2 nM | EC50 [13]: 1 nM

Cc1ccnc2c1NC(=O)c1cccnc1N2C1CC1 [NEVIRAPINE]
CC50 [2]: > 10000 nM | EC50 [3]: 31 nM | EC50 [4]: 148 nM | EC50 [5]: 79 nM | EC50 [8]: 8460 nM | EC50 [9]: > 10000 nM | EC50 [10]: > 10000 nM | EC50 [11]: 116 nM | EC50 [12]: 112 nM | EC50 [13]: 3000 nM
